According to ChEMBL document CHEMBL1132922, “Corticotropin releasing factor (CRF) receptor modulators: progress and opportunities for new therapeutic agents” (J Med Chem, 2000):
One block for each compound: values may come before it.

Key:
[1] = Plasma administered 1 mg/kg intravenously in rat.; type: ADME, organism-based; set-up: dose 1 mg/kg, route intravenous; settings: iv
[2] = Half life period when administered 1 mg/kg intravenously in rat; type: ADME, organism-based; set-up: dose 1 mg/kg, route intravenous; settings: in vivo, iv
[3] = target: T1, Corticotropin-releasing factor receptor 2 (Homo sapiens, UniProt Q13324); assay: Compound was tested for the binding affinity to human corticotropin releasing factor receptor (hCRF2)
T1 sequence (Q13324 whole entry): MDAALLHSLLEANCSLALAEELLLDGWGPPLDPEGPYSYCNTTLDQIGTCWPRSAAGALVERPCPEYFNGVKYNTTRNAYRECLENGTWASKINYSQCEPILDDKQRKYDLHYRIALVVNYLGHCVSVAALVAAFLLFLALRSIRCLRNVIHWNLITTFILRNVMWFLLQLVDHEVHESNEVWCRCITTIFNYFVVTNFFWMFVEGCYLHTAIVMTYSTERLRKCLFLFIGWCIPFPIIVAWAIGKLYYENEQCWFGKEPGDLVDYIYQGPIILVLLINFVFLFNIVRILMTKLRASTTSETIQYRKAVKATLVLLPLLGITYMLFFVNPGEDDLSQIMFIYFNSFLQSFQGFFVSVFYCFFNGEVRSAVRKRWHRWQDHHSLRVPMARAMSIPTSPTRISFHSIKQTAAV

[4] = target: T2, Corticotropin-releasing factor receptor 1 (Homo sapiens, UniProt P34998); assay: Antagonist potency in hCRF1 stimulated adenylate cyclase assay; type: functional
T2 sequence (P34998 whole entry): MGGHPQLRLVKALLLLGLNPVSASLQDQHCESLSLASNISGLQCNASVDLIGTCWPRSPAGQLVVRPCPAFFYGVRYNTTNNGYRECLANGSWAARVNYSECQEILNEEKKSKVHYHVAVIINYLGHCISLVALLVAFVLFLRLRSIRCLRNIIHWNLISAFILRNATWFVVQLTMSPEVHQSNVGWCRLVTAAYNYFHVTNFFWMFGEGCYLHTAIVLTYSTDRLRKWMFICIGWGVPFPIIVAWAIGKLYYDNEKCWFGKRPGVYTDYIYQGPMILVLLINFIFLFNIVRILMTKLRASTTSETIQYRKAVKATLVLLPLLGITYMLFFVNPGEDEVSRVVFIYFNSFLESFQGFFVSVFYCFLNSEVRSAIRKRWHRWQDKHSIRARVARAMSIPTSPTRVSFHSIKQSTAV

[5] = target: T2, Corticotropin-releasing factor receptor 1; assay: Compound was tested for the binding affinity to human corticotropin releasing factor 1 (hCRF1) receptors.
[6] = Compound was tested for the binding affinity to mouse Corticotropin releasing factor receptor 2 beta
[7] = organism: Rattus norvegicus; assay: Percent control value is reported, after studying ability to inhibit CRF-stimulated release of ACTH in rats; type: functional; set-up: scale not given: the % may be the effect or the level left
[8] = target: T3, Corticotropin releasing factor receptor (Rattus norvegicus, UniProt P47866+P35353); assay: Compound was tested for the binding affinity to rat ccorticotropin releasing factor receptor; type: protein assay
[9] = target: T2, Corticotropin-releasing factor receptor 1; assay: Effective concentration to stimulate the human corticotropin releasing factor receptor using agonist-stimulated adenylate cyclase assay; type: functional
[10] = Pharmacokinetic profile (5 mg/kg) in rat for Oral bioavailability; type: ADME, organism-based; settings: in vivo
[11] = target: T2, Corticotropin-releasing factor receptor 1; assay: Inhibition of corticotropin releasing factor receptor mediated increase in cAMP level using HEK293 cells expressing h-CRF1 receptor; type: cell-based
[12] = Oral bioavailability is reported, after administering 1 mg/kg (intravenously and orally ) to dogs; type: ADME, organism-based, Canis lupus familiaris; settings: dog, in vivo
[13] = target: T2, Corticotropin-releasing factor receptor 1; assay: Compound was tested for the binding affinity to human corticotropin releasing factor receptor
[14] = oral pharmacokinetic parameter, Maximum concentration was reported in dogs; type: ADME, organism-based, Canis lupus familiaris; set-up: route oral; settings: dog, in vivo
[15] = target: T2, Corticotropin-releasing factor receptor 1; assay: Inhibition of corticotropin releasing factor receptor mediated increase in adenylate cyclase activity was evaluated
[16] = (§1) oral pharmacokinetic parameter, Half-life period was reported in rats; type: ADME, organism-based; settings: rat, in vivo
[17] = oral pharmacokinetic parameter, Half-life period was reported in dogs; type: ADME, organism-based, Canis lupus familiaris; settings: dog, in vivo
[18] = as §1; type: ADME, organism-based; settings: rat, in vivo; remark: listed apart in the source
[19] = oral pharmacokinetic parameter, Oral bioavailability was reported in rats; type: ADME, organism-based; settings: rat, in vivo
[20] = oral pharmacokinetic parameter, Oral bioavailability was reported in dogs; type: ADME, organism-based, Canis lupus familiaris; settings: dog, in vivo
[21] = target: T3, Corticotropin releasing factor receptor; assay: (§2) Compound was tested for the binding affinity to rat corticotropin releasing factor receptor; type: protein assay
[22] = organism: Rattus norvegicus; assay: Effective concentration to inhibit adenocorticotropic hormone (ACTH) release from primary cultures of rat pituitary cells.; type: functional, cell-based; settings: Pituitary gland cell
[23] = target: T3, Corticotropin releasing factor receptor; assay: as §2; type: protein assay; remark: listed apart in the source
[24] = target: T3, Corticotropin releasing factor receptor; assay: Effective concentration to inhibit CRF-mediated increase in adenylate cyclase; type: protein assay
[25] = Compound was tested for the max. conc. when administered intraperitoneally (ip) 30 mg/kg; type: ADME, organism-based; set-up: dose 30 mg/kg, route intraperitoneal; settings: in vivo
[26] = Compound was tested for the max. conc. when administered perorally(po) 30 mg/kg; type: ADME, organism-based; set-up: dose 30 mg/kg, route oral; settings: in vivo
[27] = Compound was tested for bioavailability when administered intraperitoneally; type: ADME, organism-based; settings: eutheria, in vivo, ip
[28] = Compound was tested for bioavailability when administered perorally; type: ADME, organism-based; settings: eutheria, in vivo, po
[29] = target: T3, Corticotropin releasing factor receptor; assay: Compound was tested for the binding affinity to rat Corticotropin releasing factor (rCRF) receptors; type: protein assay
[30] = tested on: Rattus norvegicus; assay: Dose (ip) that completely reverses the r/h-CRF-enhanced acoustic startle of rats; type: functional
[31] = organism: Rattus norvegicus; assay: 50% inhibitory concentration to antagonize ACTH secretion; type: functional; settings: read-out: ID50 (the source's name)

Compound: CO[C@@]12C(COC(N)=O)C3=C(C(=O)C(C)=C(NCCc4ccco4)C3=O)N1CC1NC12 (some centres not stated)
- Ki [6]: 20 nM
- Control [7]: 50%
- Ki [8]: 110 nM

Compound: CC[C@H](C)[C@H](NC(=O)[C@@H](NC(=O)[C@H](CC(=O)O)NC(=O)[C@H](CC(C)C)NC(=O)[C@H](CC(C)C)NC(=O)[C@H](CC(C)C)NC(=O)[C@H](CCCNC(=N)N)NC(=O)[C@H](CC(N)=O)NC(=O)[C@H](CC(N)=O)NC(=O)[C@H](C)NC(=O)[C@H](C)NC(=O)[C@H](CCC(N)=O)NC(=O)[C@H](CCC(N)=O)NC(=O)[C@H](CCCCN)NC(=O)[C@H](CCC(=O)O)NC(=O)[C@H](CCCCN)NC(=O)[C@H](CCC(=O)O)NC(=O)[C@H](CCC(N)=O)NC(=O)[C@H](CCCCN)NC(=O)[C@H](CCC(=O)O)NC(=O)[C@@H](NC(=O)[C@H](CCC(=O)O)NC(=O)[C@@H](NC(=O)[C@H](CCSC)NC(=O)[C@H](CCCCN)NC(=O)[C@H](CCCNC(=N)N)NC(=O)[C@H](CC(C)C)NC(=O)[C@H](CC(C)C)NC(=O)[C@H](Cc1c[nH]cn1)NC(=O)[C@H](N)Cc1ccccc1)[C@@H](C)CC)[C@@H](C)CC)[C@@H](C)O)C(N)=O
- EC50 [9]: 3.76 µM

Compound: CCN(c1nc(C)nc(N2CCOCC2)n1)c1c(Br)cc(OC)cc1OC.CS(=O)(=O)O
- bioavailability [10]: 20%

Compound: CCCN(CC1CC1)c1nc(C)nc(Nc2c(Cl)cc(Cl)cc2Cl)c1Cl
- Ki [21]: 2 nM
- EC50 [22]: 70 nM
- Ki [23]: > 10 µM
- EC50 [24]: 150 nM

Compound: CCCCN(CC)c1nc(C)nc2c1c(C)cn2-c1c(C)cc(C)cc1C.Cl
- Dose [30]: 17.8 mg/kg
- ED50 [31]: 13 mg/kg

Further lines, results first:

- clearance [1]: 50 mL/min/kg
- half-life [2]: 456 min
Compound: COCCN(CCOC)c1nc(C)nc2c1nnn2-c1ccc(C(C)C)cc1Br

- Ki [3]: > 10 µM
- EC50 [4]: 142 nM
- Ki [5]: 2.8 nM
Compound: CCCN(CCC)c1cc(C)nc2c(-c3ccc(OC)cc3OC)c(C)nn12

- IC50 [11]: 75 nM
- bioavailability [12]: 59%
- Ki [13]: 3.3 nM
Compound: COCC(COC)n1nnc2c(Nc3c(C)cc(C)cc3Cl)nc(C)cc21.CS(=O)(=O)O

- Cmax [14]: 240 nM
- IC50 [15]: 82 nM
- half-life [16]: 990 min
- half-life [17]: 1980 min
- half-life [18]: 990 min
- F [19]: 36.7%
- bioavailability [20]: 50%
- Ki [13]: 1.8 nM
Compound: COCC(COC)Nc1nc(C)nc2c(-c3ccc(Cl)cc3Cl)c(C)nn12

- Cmax [25]: 1880 nM
- Cmax [26]: 366 nM
- bioavailability [27]: 26%
- bioavailability [28]: 4%
Compound: CCN(c1nc(C)cc(C)n1)c1c(Br)cc(OC)cc1OC

- Ki [29]: 28 nM
Compound: Cc1cc(N2CCOCC2)c2ccn(-c3ccc(C(C)C)cc3Br)c2n1
